# Experimental data from PubChem BioAssay (NCI).
#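 GI50: concentration for 50% inhibition of growth. TGI denotes the concentration required for complete inhibition of growth.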
# Assays:
# Assay in all cases: inhibition of tumour cell growth, NCI panel, 384-well format
# UACC-257 melanoma = system: UACC-257 melanoma
# SNB-75 CNS = system: SNB-75 CNS
# HL-60(TB) leukemia = system: HL-60(TB) leukemia
# MOLT-4 leukemia = system: MOLT-4 leukemia
# UO-31 renal = system: UO-31 renal
# MCF7 breast = system: MCF7 breast
# HCC-2998 colon = system: HCC-2998 colon
# EKVX NSCLC = system: EKVX NSCLC
# HOP-92 NSCLC = system: HOP-92 NSCLC
# LOX IMVI melanoma = system: LOX IMVI melanoma
# NCI-H522 lung = system: NCI-H522 lung
# SR leukemia = system: SR leukemia
# T-47D breast = system: T-47D breast
# RXF 393 renal = system: RXF 393 renal
# SW-620 colon = system: SW-620 colon
# 786-0 renal = system: 786-0 renal
# UACC-62 melanoma = system: UACC-62 melanoma
# HOP-62 NSCLC = system: HOP-62 NSCLC
# NCI-H322M lung = system: NCI-H322M lung
# NCI-H226 lung = system: NCI-H226 lung
# RPMI-8226 leukemia = system: RPMI-8226 leukemia
# IGROV1 ovarian = system: IGROV1 ovarian
# A549 NSCLC = system: A549 NSCLC
# SF-268 CNS = system: SF-268 CNS
# A498 renal = system: A498 renal
# TK-10 renal = system: TK-10 renal
# OVCAR-3 ovarian = system: OVCAR-3 ovarian
# CAKI-1 renal = system: CAKI-1 renal
# M14 melanoma = system: M14 melanoma
smiles,measurement,setting,value
O=C(c1ccc(/C=C/c2n[nH]c3ccccc23)cc1)N1CCNCC1,GI50,UACC-257 melanoma,5.94 µM
same,TGI,UACC-257 melanoma,17.8 µM
same,GI50,SNB-75 CNS,3.4 µM
same,TGI,SNB-75 CNS,9.95 µM
same,GI50,HL-60(TB) leukemia,0.416 µM
same,TGI,HL-60(TB) leukemia,15 µM
same,GI50,MOLT-4 leukemia,0.252 µM
same,TGI,MOLT-4 leukemia,1.27 µM
same,GI50,UO-31 renal,2.69 µM
same,TGI,UO-31 renal,17.2 µM
same,GI50,MCF7 breast,2.9 µM
same,TGI,MCF7 breast,16.3 µM
same,GI50,HCC-2998 colon,11 µM
same,TGI,HCC-2998 colon,27.4 µM
same,GI50,EKVX NSCLC,3.23 µM
same,TGI,EKVX NSCLC,14.7 µM
same,GI50,HOP-92 NSCLC,2.32 µM
same,TGI,HOP-92 NSCLC,11 µM
same,GI50,LOX IMVI melanoma,2.99 µM
same,TGI,LOX IMVI melanoma,10.8 µM
same,GI50,NCI-H522 lung,0.529 µM
same,TGI,NCI-H522 lung,5.51 µM
same,GI50,SR leukemia,0.18 µM
same,TGI,SR leukemia,0.32 µM
same,GI50,T-47D breast,17.7 µM
same,TGI,T-47D breast,31.9 µM
same,GI50,RXF 393 renal,6.96 µM
same,TGI,RXF 393 renal,19.7 µM
same,GI50,SW-620 colon,3.1 µM
same,TGI,SW-620 colon,14.1 µM
same,GI50,786-0 renal,10.7 µM
same,TGI,786-0 renal,22.7 µM
same,GI50,UACC-62 melanoma,7.66 µM
same,TGI,UACC-62 melanoma,20.8 µM
same,GI50,HOP-62 NSCLC,2.32 µM
same,TGI,HOP-62 NSCLC,16.5 µM
same,GI50,NCI-H322M lung,11.7 µM
same,TGI,NCI-H322M lung,27.8 µM
same,GI50,NCI-H226 lung,1.32 µM
same,TGI,NCI-H226 lung,4.89 µM
same,GI50,RPMI-8226 leukemia,1.17 µM
same,TGI,RPMI-8226 leukemia,11.1 µM
same,GI50,IGROV1 ovarian,4.66 µM
same,TGI,IGROV1 ovarian,18.2 µM
same,GI50,A549 NSCLC,1.96 µM
same,TGI,A549 NSCLC,19.9 µM
same,GI50,SF-268 CNS,4.18 µM
same,TGI,SF-268 CNS,19.5 µM
same,GI50,A498 renal,13.2 µM
same,TGI,A498 renal,26 µM
same,GI50,TK-10 renal,4.91 µM
same,TGI,TK-10 renal,22.7 µM
same,GI50,OVCAR-3 ovarian,11.6 µM
same,TGI,OVCAR-3 ovarian,24.5 µM
same,GI50,CAKI-1 renal,3.37 µM
same,TGI,CAKI-1 renal,16.4 µM
same,GI50,M14 melanoma,4.3 µM
same,TGI,M14 melanoma,17 µM
